Patent US4432732A, “Method for predicting properties of a chemical compound” (priority 1982, dated 1984)
“Also recorded” adds a separate entry of the source. Where a SMILES comes first, the peptide text is derived from it. [ ]: non-standard residue; d: D form. The star is where a group is joined. ξ: configuration not given here. ξS = NC(CO)C(=O)O; OiPr = CC(C)O*

Columns and labels:
[1] = cited from earlier work; for taste in words: bitter or sweet taste; for sweetness, times sweeter than sucrose: taste of sucrose is 1
small animals = settings: intravenous dose; cited from earlier work
[2] = acute toxicity, LD50 (intravenous dose, small animals); settings: in vivo, LD50 (mg/kg) divided by molecular weight, multiplied by 100
Protocol: Conventionally, the degree of toxicity of a compound has been known only after actual dose. LD50 data for small animals (intravenous dose) contained in the Merck Index (9th edition) were thoroughly taken to use as a learning set, which amounts to more than 300 compounds. The predictability of this chart was tested with 82 other compounds.
Toxicity scale used for this study. Unit of ordinary LD50 values are mg/kg, where mg is the quantity of substance dosed for 50% lethality and kg is the weight of the test animal.
To standardize this value on the millimore base, the LD50 values is divided by the molecular weight. In FIG. 1, the quantity is further multiplied by 100 to avoid unfamiliarly small digits.

OC[C@H]1O[C@@](CO)(O[C@H]2O[C@H](CO)[C@@H](O)[C@H](O)[C@H]2O)[C@@H](O)[C@@H]1O [sucrose, reference compound]
taste in words [1]: lacking bitter taste

CNC(=O)[C@H](Cc1ccc(O)cc1)NC(=O)[C@@H](N)CC(=O)O [(IV)] (H-Asp-Tyr-NHMe)
taste in words [1]: bitter taste is observed

CC(C)OC(=O)C(CO)NC(=O)[C@@H](N)CC(=O)O (stereo partly shown) [(VII)] (H-Asp-[ξS]-OiPr)
taste in words [1]: sweet peptides | sweetness, times sweeter than sucrose [1]: ~120 times

N[C@@H](CC(=O)O)C(=O)N[C@@H](Cc1ccccc1)C(=O)O [(II)] (H-Asp-Phe-OH)
taste in words [1]: bitter taste is observed

COC(=O)[C@H](Cc1ccccc1)NC(=O)[C@@H](N)CCC(=O)O [(V)]
taste in words [1]: bitter taste is observed

COc1cc(C(=O)OCCCN2CCCN(CCCOC(=O)c3cc(OC)c(OC)c(OC)c3)CC2)cc(OC)c1OC [Compound II]
observed LD50 (small animals): 26.6 mg/kg | LD50 [2]: 328 µmol/kg

N[C@@H](CCC(=O)O)C(=O)N[C@@H](Cc1ccccc1)C(=O)O [(VI)]
taste in words [1]: bitter taste is observed

CC(=O)Nc1c(I)c(NC(C)=O)c(I)c(C(=O)O)c1I [Compound I]
observed LD50 (small animals): 14700 mg/kg | LD50 [2]: 22900 µmol/kg

N[C@@H](CC(=O)O)C(=O)N[C@@H](Cc1ccc(O)cc1)C(=O)O [(III)] (H-Asp-Tyr-OH)
taste in words [1]: bitter taste is observed

O=S(=O)(O)NC1CCCCC1 [cyclamic acid, reference compound]
taste in words [1]: lacking bitter taste

COC(=O)[C@H](Cc1ccccc1)NC(=O)[C@@H](N)CC(=O)O [aspartame, reference compound] (H-Asp-Phe-OMe)
taste in words [1]: strong sweetness; also recorded: lacking bitter taste | sweetness, times sweeter than sucrose [1]: about 150 times

O=C1NS(=O)(=O)c2ccccc21 [saccharine, reference compound]
taste in words [1]: slight bitterness
